Source: PubChem BioAssay AID248 (DTP/NCI, 2004)
Several values for one entry are separate records, joined by “and”; a condition that tells them apart may be missing. Identical values can stand only once. Toxic doses and inconclusive results are not listed. Cut-off read from the data, not from the text of the source: active = T/C of 150% or more; inactive = T/C below 125%. Peptide text beside a SMILES is read from it. * marks the point of attachment. Cbz = O=C(OCc1ccccc1)*

Tested on: L1210 leukemia ip in BDF1 mice, survival T/C
Assay: NCI In Vivo Anticancer Drug Screen. Data for tumor model L1210 Leukemia (intraperitoneal) in B6D2F1 (BDF1) mice
Conditions: endpoint: mean survival time, higher = longer survival
Summary of the method: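 Value reflects the ratio of survival in compound-treated mice to survival in vehicle-treated controls, with both groups carrying the same transplanted tumor.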

[1] = dose: 100.0 mg/kg/injection, schedule: Q01DX001 (ip), vehicle: saline
[2] = dose: 200.0 mg/kg/injection, schedule: Q01DX001 (ip), vehicle: saline
[3] = dose: 400.0 mg/kg/injection, schedule: Q01DX001 (ip), vehicle: saline
[4] = dose: 100.0 mg/kg/injection, schedule: Q04DX002 (ip), vehicle: Klucel (hydroxypropylcellulose) (HPC)
[5] = dose: 200.0 mg/kg/injection, schedule: Q04DX002 (ip), vehicle: Klucel (hydroxypropylcellulose) (HPC)
[6] = dose: 100.0 mg/kg/injection, schedule: Q01DX009 (ip), vehicle: Klucel (hydroxypropylcellulose) (HPC)
[7] = dose: 200.0 mg/kg/injection, schedule: Q01DX009 (ip), vehicle: Klucel (hydroxypropylcellulose) (HPC)
[8] = dose: 400.0 mg/kg/injection, schedule: Q01DX009 (ip), vehicle: Klucel (hydroxypropylcellulose) (HPC)
[9] = dose: 100.0 mg/kg/injection, schedule: Q04DX003 (ip), vehicle: saline
[10] = dose: 200.0 mg/kg/injection, schedule: Q04DX003 (ip), vehicle: saline
[11] = dose: 400.0 mg/kg/injection, schedule: Q04DX003 (ip), vehicle: saline
[12] = dose: 50.0 mg/kg/injection, schedule: Q01DX001 (ip), vehicle: carboxymethylcellulose (CMC)
[13] = dose: 100.0 mg/kg/injection, schedule: Q01DX001 (ip), vehicle: carboxymethylcellulose (CMC)
[14] = dose: 200.0 mg/kg/injection, schedule: Q01DX001 (ip), vehicle: carboxymethylcellulose (CMC)
[15] = dose: 400.0 mg/kg/injection, schedule: Q01DX001 (ip), vehicle: carboxymethylcellulose (CMC)

Measured: T/C

CC[N+](C)(C)CCC#N
inactive: dose: 10.0 mg/kg/injection, schedule: Q01DX001 (ip), vehicle: saline 95 % of control | dose: 20.0 mg/kg/injection, schedule: Q01DX001 (ip), vehicle: saline 101 % of control | dose: 40.0 mg/kg/injection, schedule: Q01DX001 (ip), vehicle: saline 101 % of control

CSc1ccc(C(=O)NN)cc1
inactive: dose: 50.0 mg/kg/injection, schedule: Q01DX001 (ip), vehicle: saline 101 % of control | [1] 101 % of control | [2] 101 % of control | [3] 104 % of control

COc1ccc(COC(=O)Nc2ccccc2C(F)(F)F)cc1
inactive: dose: 100.0 mg/kg/injection, schedule: Q01DX009 (ip), vehicle: gum acacia 89 % of control | dose: 200.0 mg/kg/injection, schedule: Q01DX009 (ip), vehicle: gum acacia 89 % of control

Clc1ccc(-c2oc(-c3ccc(Cl)cc3)c3c2CC=CC3)cc1
inactive: dose: 100.0 mg/kg/injection, schedule: Q04DX003 (ip), vehicle: gum acacia 93 % of control | dose: 200.0 mg/kg/injection, schedule: Q04DX003 (ip), vehicle: gum acacia 106 % of control | dose: 400.0 mg/kg/injection, schedule: Q04DX003 (ip), vehicle: gum acacia 97 % of control

CC(C)C(=O)Nc1ccc(Cl)c(Cl)c1
inactive: dose: 222.0 mg/kg/injection, schedule: Q01DX Z (ip), vehicle: methylcellulose (MC) 111 % of control | dose: 333.0 mg/kg/injection, schedule: Q01DX Z (ip), vehicle: methylcellulose (MC) 98 % of control | dose: 500.0 mg/kg/injection, schedule: Q01DX Z (ip), vehicle: methylcellulose (MC) 102 % of control

CNc1ncnc(NC)c1[N+](=O)[O-]
inactive: [4] 101 % of control | [5] 90 % of control

CCCCCCC(O)CCCCCCCCCCCO (centres undefined)
inactive: [6] 108 % of control | [7] 97 % of control | [8] 103 % of control

CCCCCCCCCCP(=S)(CCCC)CCCC
inactive: dose: 100.0 mg/kg/injection, schedule: Q04DX003 (ip), vehicle: Klucel (hydroxypropylcellulose) (HPC) 98 % of control | dose: 200.0 mg/kg/injection, schedule: Q04DX003 (ip), vehicle: Klucel (hydroxypropylcellulose) (HPC) 101 % of control | dose: 400.0 mg/kg/injection, schedule: Q04DX003 (ip), vehicle: Klucel (hydroxypropylcellulose) (HPC) 104 % of control

CCOc1ccc2ccccc2c1OP(=O)(OCC)OCC
inactive: dose: 100.0 mg/kg/injection, schedule: Q04DX002 (ip), vehicle: other 103 % of control | dose: 200.0 mg/kg/injection, schedule: Q04DX002 (ip), vehicle: other 113 % of control | dose: 400.0 mg/kg/injection, schedule: Q04DX002 (ip), vehicle: other 106 % of control

C1OCC2(CO1)COCOC2
inactive: dose: 50.0 mg/kg/injection, schedule: Q01DX009 (ip), vehicle: acetone 95 % of control | dose: 100.0 mg/kg/injection, schedule: Q01DX009 (ip), vehicle: acetone 91 % of control | [9] 95 % of control | dose: 200.0 mg/kg/injection, schedule: Q01DX009 (ip), vehicle: acetone 93 % of control | [10] 103 % of control | [11] 105 % of control

O=C(O)/C=C/c1cccc(Br)c1
inactive: [12] 101 % of control | [13] 97 % of control | [14] 97 % of control | [15] 101 % of control

O=CN/N=C\c1cc2ccccc2c2ccccc12
inactive: [12] 96 % of control | [13] 93 % of control | [14] 93 % of control | [15] 87 % of control

COc1ccc(N=C2C(=O)Nc3ccc(Br)cc32)cc1
inactive: [4] 107 % of control | [5] 96 % of control | dose: 400.0 mg/kg/injection, schedule: Q04DX002 (ip), vehicle: Klucel (hydroxypropylcellulose) (HPC) 107 % of control

O=C1CCCN1.O=C1CCCN1.[Br][Co][Br]
inactive: dose: 37.5 mg/kg/injection, schedule: Q01DX009 (ip), vehicle: saline 113 % of control | dose: 50.0 mg/kg/injection, schedule: Q04DX003 (ip), vehicle: saline 107 % of control | dose: 75.0 mg/kg/injection, schedule: Q01DX001 (ip), vehicle: saline 103 % of control | dose: 75.0 mg/kg/injection, schedule: Q01DX009 (ip), vehicle: saline 116 % of control | [9] 109 % of control | dose: 150.0 mg/kg/injection, schedule: Q01DX001 (ip), vehicle: saline 102 % of control | dose: 300.0 mg/kg/injection, schedule: Q01DX001 (ip), vehicle: saline 97 % of control

O=C(CC(C(=O)c1ccccc1)c1ccccc1)c1ccccc1 (centres undefined)
inactive: [6] 93 % of control and 89 % of control | [7] 103 % of control | [8] 94 % of control and 103 % of control

CCCCCCCCC(=O)[O][Hg][c]1ccccc1
inactive: dose: 75.0 mg/kg/injection, schedule: Q01DX001 (ip), vehicle: other 106 % of control

Clc1[nH]cnc1Br
inactive: dose: 100.0 mg/kg/injection, schedule: Q04DX003 (ip), vehicle: saline with Tween-80 107 % of control | dose: 200.0 mg/kg/injection, schedule: Q04DX003 (ip), vehicle: saline with Tween-80 93 % of control | dose: 400.0 mg/kg/injection, schedule: Q04DX003 (ip), vehicle: saline with Tween-80 104 % of control

Nc1cc(Cl)cc(Cl)c1C(=O)O
inactive: dose: 50.0 mg/kg/injection, schedule: Q01DX009 (ip), vehicle: other 100 % of control | dose: 100.0 mg/kg/injection, schedule: Q01DX009 (ip), vehicle: other 94 % of control | [9] 90 % of control | [10] 90 % of control

Cc1cccn2ncnc12
inactive: dose: 50.0 mg/kg/injection, schedule: Q01DX001 (ip), vehicle: alcohol 106 % of control | dose: 100.0 mg/kg/injection, schedule: Q01DX001 (ip), vehicle: alcohol 107 % of control | dose: 200.0 mg/kg/injection, schedule: Q01DX001 (ip), vehicle: alcohol 102 % of control

O=[N+]([O-])NC(=NCCNc1ccccc1)Nc1ccccc1
inactive: dose: 100.0 mg/kg/injection, schedule: Q04DX002 (ip), vehicle: gum acacia 98 % of control | dose: 200.0 mg/kg/injection, schedule: Q04DX002 (ip), vehicle: gum acacia 98 % of control | dose: 400.0 mg/kg/injection, schedule: Q04DX002 (ip), vehicle: gum acacia 88 % of control

CCOC(COc1ccccc1)c1ccccc1 (centres undefined)
inactive: [6] 106 % of control | [7] 113 % of control | [8] 106 % of control

COC(=O)C(CC(C)C)NC(=O)C(CC(N)=O)NC(=O)C(NC(=O)OCc1ccccc1)C(C)C (stereo not drawn) (Cbz-Val-Asn-Leu-OMe; configuration not given here)
inactive: [1] 95 % of control | [2] 91 % of control | [3] 91 % of control

O=C1CC(NC(=O)OCc2ccccc2)C(=O)O1 (centres undefined)
inactive: dose: 100.0 mg/kg/injection, schedule: Q01DX009 (ip), vehicle: saline with Tween-80 96 % of control | [9] 103 % of control | dose: 200.0 mg/kg/injection, schedule: Q01DX009 (ip), vehicle: saline with Tween-80 93 % of control | [10] 97 % of control | dose: 400.0 mg/kg/injection, schedule: Q01DX009 (ip), vehicle: saline with Tween-80 94 % of control | [11] 95 % of control
